The subject of this experiment is brain. Briefly: Maturation of TTM-001 capsid, NGS enrichment in brain of CD-1 Outbred mice. Format: in vivo. Conditions: NGS fold-enrichment of TTM-001 matured AAV capsid variants in the brain of CD-1 Outbred mice; intravenous 1.0×10^12 VG/dose; 14 days in life; RNA; relative to non-matured TTM-001 control. An outline of the steps:
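Pooled matured TTM-001 or TTM-002 capsid libraries (loop IV region randomized by triple-codon or low-frequency point mutagenesis) dosed IV via tail vein at 1.0×10^12 VG/dose to three female CD-1 mice. Brain RNA taken after 14 days; RT-PCR and NGS gave fold enrichment versus parent TTM-001 or TTM-002 control.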

This is an account of results in US20260250318A1, “COMPOSITIONS AND METHODS FOR CROSSING THE BLOOD BRAIN BARRIER” (VOYAGER THERAPEUTICS, INC., priority 2022, published 2026).

Consider KTINGSGSPHSKAQYCLT, for which the “Fold enrichment over TTM-001” value is 2.628 fold.

Consider KTINGSGSPHSKLYMQQT, for which the “Fold enrichment over TTM-001” value is listed as 2.015 fold.

Regarding KTINGSGSPHSKRSNQQT, the “Fold enrichment over TTM-001” value is 2.886 fold.

In the case of KTINGSGSPHRRRQNQQT, the “Fold enrichment over TTM-001” value is reported as 3.754 fold.

On to KTINGSKSPHRKAQNQQT, for which the “Fold enrichment over TTM-001” value was determined as 2.696 fold.

With KTINTSRSPHSKAQNQQT, the “Fold enrichment over TTM-001” value is on record as 2.520 fold.

In the case of KTINGSGSPHSKAQSYRT, the “Fold enrichment over TTM-001” value is 2.088 fold.

For KTINGSGSPHSKGCLQQT, the “Fold enrichment over TTM-001” value stood at 2.320 fold.

Consider KTINGSCSPHLAAQNQQT, for which the “Fold enrichment over TTM-001” value worked out at 2.134 fold.

On to KTINGSGSPHSKSERQQT, for which the “Fold enrichment over TTM-001” value was 2.263 fold.

Consider KTINGSGTPHSKAQNQQT, for which the “Fold enrichment over TTM-001” value worked out at 2.259 fold.

Regarding KTINGSGSPHSKAQCYVT, the “Fold enrichment over TTM-001” value is given as 2.261 fold.

As for KTINGSGSPHSKAKSRQT, the “Fold enrichment over TTM-001” value was 2.739 fold.

Consider KTINGFSSPHRKAQNQQT, for which the “Fold enrichment over TTM-001” value turned out to be 2.276 fold.

In the case of KTINRHSSPHSKAQNQQT, the “Fold enrichment over TTM-001” value was found to be 2.877 fold.

As for KEIKGSGSPHSKAQNQQT, the “Fold enrichment over TTM-001” value is listed as 2.140 fold.

Turning to KTINGMLSPHRKAQNQQT, the “Fold enrichment over TTM-001” value was determined as 2.646 fold.

Consider KTINGSGSPHSKALRRQT, for which the “Fold enrichment over TTM-001” value was found to be 4.330 fold.

Turning to KTINGVLSPHWKAQNQQT, the “Fold enrichment over TTM-001” value is 2.199 fold.

KTRKSSGSPHSKAQNQQT: the “Fold enrichment over TTM-001” value was found to be 2.065 fold.

As for KTINGSGSPHSKAQLGKT, the “Fold enrichment over TTM-001” value came out at 2.000 fold.

Turning to KTINGSGSPHSKAQRLRT, the “Fold enrichment over TTM-001” value was found to be 4.322 fold.

In the case of KTINGSGSPHSRRVNQQT, the “Fold enrichment over TTM-001” value amounted to 2.676 fold.

Turning to KTINGSGSPHSKAQVSIT, the “Fold enrichment over TTM-001” value stood at 2.028 fold.

In the case of KTINGRQSPHVKAQNQQT, the “Fold enrichment over TTM-001” value amounted to 2.557 fold.

Take KTINGSGSPHSKALRYQT: the “Fold enrichment over TTM-001” value is listed as 3.076 fold.

Regarding KTINGSGSPHLRRQNQQT, the “Fold enrichment over TTM-001” value was 3.493 fold.

For the sequence KTINGSGSPHSKMRAQQT, the “Fold enrichment over TTM-001” value came out at 3.382 fold.

Regarding KTINGSGSPHSKAQTFRT, the “Fold enrichment over TTM-001” value worked out at 2.847 fold.

In the case of KTINGSCSPHSGAQNQQT, the “Fold enrichment over TTM-001” value came to 2.994 fold.

On to KTINGSGSPHSKQRVQQT, for which the “Fold enrichment over TTM-001” value is 2.117 fold.

In the case of KTINGSGSPHSKGGRQQT, the “Fold enrichment over TTM-001” value stood at 2.164 fold.

With KTINGSGSPHSKAFTRQT, the “Fold enrichment over TTM-001” value is 2.518 fold.

Take KTINGSGSPHMYAQNQQT: the “Fold enrichment over TTM-001” value is 2.060 fold.

Turning to KTINGSGSPHSIWQNQQT, the “Fold enrichment over TTM-001” value is recorded as 5.883 fold.

Consider “KTINGSRSPHCSAQNQQT (peptide inserted in AAV capsid)”, for which the “Fold enrichment over TTM-001” value is 2.426 fold.

For the sequence KTINGSGSPHSRVRNQQT, the “Fold enrichment over TTM-001” value is 2.540 fold.

Turning to KTINGSGSPHSKLCSQQT, the “Fold enrichment over TTM-001” value was found to be 2.989 fold.

For the sequence KTINGSGSPHLLYQNQQT, the “Fold enrichment over TTM-001” value came out at 2.983 fold.

Turning to KTINGSGSPHSKAQILVT, the “Fold enrichment over TTM-001” value is on record as 2.009 fold.

As to KTINGPLSPHRKAQNQQT, the “Fold enrichment over TTM-001” value is 2.028 fold.

KTINGSGSPHSKAQPSKT: the “Fold enrichment over TTM-001” value was 2.339 fold.

For the sequence KTINGSGSPHSKCLTQQT, the “Fold enrichment over TTM-001” value amounted to 2.644 fold.

Regarding KTINGSGSPHSKLSKQQT, the “Fold enrichment over TTM-001” value stood at 2.482 fold.

For KTINGSGSPHSTRPNQQT, the “Fold enrichment over TTM-001” value came to 2.598 fold.

On to “KTINGSRSPHARAQNQQT (peptide inserted in AAV capsid)”, for which the “Fold enrichment over TTM-001” value is 2.745 fold.

On to KTINGSGSPHSKCTLQQT, for which the “Fold enrichment over TTM-001” value was found to be 2.808 fold.

With KTINGSGSPHSKLCLQQT, the “Fold enrichment over TTM-001” value came to 2.562 fold.

As to KTINGSLSPHLFAQNQQT, the “Fold enrichment over TTM-001” value came to 2.285 fold.

With KTINGSGSPHSKAQCLFT, the “Fold enrichment over TTM-001” value was 2.421 fold.

KTINGSCSPHLRAQNQQT: the “Fold enrichment over TTM-001” value is on record as 2.423 fold.

As for KTINGSGSPHMYLQNQQT, the “Fold enrichment over TTM-001” value amounted to 3.061 fold.

With KTINGHLSPHRKAQNQQT, the “Fold enrichment over TTM-001” value was determined as 2.851 fold.

Turning to KTINGSGSPHAFLQNQQT, the “Fold enrichment over TTM-001” value is 2.475 fold.

For the sequence KTINGSGSPHSKAKLRQT, the “Fold enrichment over TTM-001” value was 3.976 fold.

With KTINGSHSPHRKAQNQQT, the “Fold enrichment over TTM-001” value was 2.028 fold.

As for KTINGSGSPHSKAQAFRT, the “Fold enrichment over TTM-001” value is recorded as 2.022 fold.

Consider KTINGSGSPHCSSQNQQT, for which the “Fold enrichment over TTM-001” value amounted to 2.253 fold.

Consider KTINGSLSPHSCAQNQQT, for which the “Fold enrichment over TTM-001” value worked out at 3.268 fold.

In the case of KTINGSGSPHSKPRVQQT, the “Fold enrichment over TTM-001” value is 2.441 fold.

On to KTINGSGSPHSKAFPRQT, for which the “Fold enrichment over TTM-001” value was found to be 3.220 fold.

On to KTINGSGSPHSKARNGQT, for which the “Fold enrichment over TTM-001” value is recorded as 2.482 fold.

KTINGSGSPHSKAQFRVT: the “Fold enrichment over TTM-001” value was found to be 2.231 fold.

On to KTINGSGSPHSKGRAQQT, for which the “Fold enrichment over TTM-001” value turned out to be 2.607 fold.

In the case of “KTINGSRSPHLRAQNQQT (peptide inserted in AAV capsid)”, the “Fold enrichment over TTM-001” value came out at 3.410 fold.

As for KTINGWRSPHSKAQNQQT, the “Fold enrichment over TTM-001” value is reported as 2.160 fold.

Turning to KTINGSGSPHSKARPYQT, the “Fold enrichment over TTM-001” value turned out to be 3.050 fold.

For “KTINGSRSPHRRAQNQQT (peptide inserted in AAV capsid)”, the “Fold enrichment over TTM-001” value turned out to be 2.615 fold.

As for KTINGSGSPHSKTLRQQT, the “Fold enrichment over TTM-001” value was 3.788 fold.

KPPTGSGSPHSKAQNQQT: the “Fold enrichment over TTM-001” value stood at 2.270 fold.

Regarding KTINGSGSPHSKARFTQT, the “Fold enrichment over TTM-001” value was found to be 2.233 fold.

Turning to KTINGSGSPHSKLRNQQT, the “Fold enrichment over TTM-001” value was 3.112 fold.

Take KTINGTRSPHAKAQNQQT: the “Fold enrichment over TTM-001” value stood at 2.071 fold.

Turning to KTINGSGSPHSKAQLVVT, the “Fold enrichment over TTM-001” value was 3.654 fold.

Take KTINGSGSPHSKATRNQT: the “Fold enrichment over TTM-001” value is 2.756 fold.

In the case of KTINGSGSPHSKWVSQQT, the “Fold enrichment over TTM-001” value is reported as 2.089 fold.

With KTINGSGSPHSKVTRQQT, the “Fold enrichment over TTM-001” value is 2.397 fold.

Turning to KTINGSLSPHCLAQNQQT, the “Fold enrichment over TTM-001” value came out at 2.577 fold.

Consider KTINGSGSPHSKAQMVRT, for which the “Fold enrichment over TTM-001” value was 2.426 fold.

Take KTINGSGSPHSKIGRQQT: the “Fold enrichment over TTM-001” value worked out at 2.739 fold.

Take KTINGRSSPHFKAQNQQT: the “Fold enrichment over TTM-001” value is on record as 2.428 fold.

For KTINGRPSPHIKAQNQQT, the “Fold enrichment over TTM-001” value is recorded as 2.155 fold.

On to KGLSGSGSPHSKAQNQQT, for which the “Fold enrichment over TTM-001” value was determined as 4.056 fold.

For KTINGSGSPHSKAQEELT, the “Fold enrichment over TTM-001” value turned out to be 2.162 fold.

Turning to KTINGSGSPHSKLWTQQT, the “Fold enrichment over TTM-001” value was 2.140 fold.

As to KTINGSGSPHRFRQNQQT, the “Fold enrichment over TTM-001” value amounted to 3.698 fold.

Regarding KTINGSGSPHSKRAAQQT, the “Fold enrichment over TTM-001” value was determined as 3.838 fold.

Turning to KTINGSGSPHSKCSNQQT, the “Fold enrichment over TTM-001” value was 2.020 fold.

KTINGSGSPHSTRQNQQT: the “Fold enrichment over TTM-001” value is given as 2.212 fold.

As for KTINGSGSPHLLFQNQQT, the “Fold enrichment over TTM-001” value is recorded as 2.069 fold.

Turning to KTINGSGSPHSKARIMQT, the “Fold enrichment over TTM-001” value is on record as 2.283 fold.

Regarding KTINGSGSPHSKLFRQQT, the “Fold enrichment over TTM-001” value was 3.806 fold.

Turning to KTINGSPSPHLFAQNQQT, the “Fold enrichment over TTM-001” value is listed as 2.238 fold.

On to KTINGMSSPHRKAQNQQT, for which the “Fold enrichment over TTM-001” value turned out to be 2.352 fold.

In the case of KTINGSGSPHRLRQNQQT, the “Fold enrichment over TTM-001” value turned out to be 2.998 fold.

On to KTINGSGSPHSKRNGQQT, for which the “Fold enrichment over TTM-001” value is given as 3.350 fold.

On to KTINGSGSPHSLLWNQQT, for which the “Fold enrichment over TTM-001” value is given as 7.983 fold.

In the case of KTINGSGSPHSSCLNQQT, the “Fold enrichment over TTM-001” value is 2.471 fold.

KTINGSGSPHSKARSKQT: the “Fold enrichment over TTM-001” value was found to be 2.758 fold.

Take KTINGSGSPHTLWQNQQT: the “Fold enrichment over TTM-001” value is 2.168 fold.

As for KTINGSGSPHSSWANQQT, the “Fold enrichment over TTM-001” value is given as 2.264 fold.

On to KTLRRSGSPHSKAQNQQT, for which the “Fold enrichment over TTM-001” value stood at 2.117 fold.

KTINGSGSPHSCSQNQQT: the “Fold enrichment over TTM-001” value was found to be 3.428 fold.

With “KTINGSTSPHLFAQNQQT (peptide inserted in AAV capsid)”, the “Fold enrichment over TTM-001” value amounted to 2.041 fold.

With KTINGLVSPHCKAQNQQT, the “Fold enrichment over TTM-001” value was found to be 2.605 fold.

KTINGSGSPHSKPLRQQT: the “Fold enrichment over TTM-001” value was determined as 2.844 fold.

For the sequence KTINGSGSPHSKSFRQQT, the “Fold enrichment over TTM-001” value amounted to 3.426 fold.

With KTINGSGSPHSKARLTQT, the “Fold enrichment over TTM-001” value is listed as 2.223 fold.

As for KTINGSGSPHSKARGTQT, the “Fold enrichment over TTM-001” value worked out at 2.505 fold.

Consider KTINGFRSPHSKAQNQQT, for which the “Fold enrichment over TTM-001” value is reported as 2.333 fold.

As to KTINGIASPHRKAQNQQT, the “Fold enrichment over TTM-001” value worked out at 2.099 fold.

As to KTINGSGSPHSKRTYQQT, the “Fold enrichment over TTM-001” value was found to be 2.870 fold.

On to KTINGSGSPHSKAQNRMR, for which the “Fold enrichment over TTM-001” value stood at 2.804 fold.

As to KTINGSGSPHSKARLYQT, the “Fold enrichment over TTM-001” value was determined as 2.201 fold.

In the case of KTINGSGSPHSKASRHQT, the “Fold enrichment over TTM-001” value turned out to be 2.324 fold.

Consider KTINGSGSPHSKFKLQQT, for which the “Fold enrichment over TTM-001” value is recorded as 2.244 fold.
